Results published in ChEMBL document CHEMBL3868641, “Discovery, characterization and biological evaluation of a novel (R)-4,4-difluoropiperidine scaffold as dopamine receptor 4 (D4R) antagonists” (Bioorg Med Chem Lett, 2016).

Tests used:
[1] = Displacement of [3H]Spiperone from recombinant human Dopamine D4.4 receptor expressed in CHO-K1 cell membranes after 120 mins
[2] = Displacement of [3H]Spiperone from recombinant human Dopamine D4.4 receptor expressed in CHO-K1 cell membranes at 10 uM after 120 mins relative to control
[3] = target: D(3) dopamine receptor (Homo sapiens) (UniProt P35462); experiment: Displacement of [3H]Spiperone from recombinant human Dopamine D3 receptor expressed in CHO cell membranes at 10 uM after 120 mins relative to control
D(3) dopamine receptor (Homo sapiens), sequence (P35462 whole entry): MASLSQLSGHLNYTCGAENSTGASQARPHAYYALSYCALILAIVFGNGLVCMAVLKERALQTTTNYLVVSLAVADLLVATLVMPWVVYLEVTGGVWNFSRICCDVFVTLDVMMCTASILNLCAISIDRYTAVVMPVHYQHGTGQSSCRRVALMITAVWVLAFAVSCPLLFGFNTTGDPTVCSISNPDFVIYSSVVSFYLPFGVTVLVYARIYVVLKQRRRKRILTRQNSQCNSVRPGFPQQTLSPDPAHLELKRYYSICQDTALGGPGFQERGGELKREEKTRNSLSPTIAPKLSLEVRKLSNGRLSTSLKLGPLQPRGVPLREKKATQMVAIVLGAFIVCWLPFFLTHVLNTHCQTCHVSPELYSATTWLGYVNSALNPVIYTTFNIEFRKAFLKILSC

[4] = target: D(1B) dopamine receptor (Homo sapiens) (UniProt P21918); experiment: Displacement of [3H]SCH-23390 from recombinant human Dopamine D5 receptor expressed in CHO cell membranes at 10 uM after 120 mins relative to control
D(1B) dopamine receptor (Homo sapiens), sequence (P21918 whole entry): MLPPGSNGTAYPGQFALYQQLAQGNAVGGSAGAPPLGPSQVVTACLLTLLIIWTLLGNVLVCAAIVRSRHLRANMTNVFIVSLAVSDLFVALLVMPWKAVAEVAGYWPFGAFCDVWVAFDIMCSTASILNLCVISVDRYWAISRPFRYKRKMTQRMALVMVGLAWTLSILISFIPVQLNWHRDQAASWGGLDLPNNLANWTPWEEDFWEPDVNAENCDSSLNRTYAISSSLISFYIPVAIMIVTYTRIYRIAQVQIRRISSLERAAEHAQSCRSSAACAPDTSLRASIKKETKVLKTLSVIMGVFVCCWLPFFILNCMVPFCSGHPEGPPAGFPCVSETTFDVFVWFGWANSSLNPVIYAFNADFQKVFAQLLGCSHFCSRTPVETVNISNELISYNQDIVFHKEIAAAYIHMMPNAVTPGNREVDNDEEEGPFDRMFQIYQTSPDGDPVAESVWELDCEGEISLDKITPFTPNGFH

[5] = target: D(1A) dopamine receptor (Homo sapiens) (UniProt P21728); experiment: Displacement of [3H]SCH-23390 from recombinant human Dopamine D1 receptor expressed in CHO cell membranes at 10 uM after 120 mins relative to control
D(1A) dopamine receptor (Homo sapiens), sequence (P21728 whole entry): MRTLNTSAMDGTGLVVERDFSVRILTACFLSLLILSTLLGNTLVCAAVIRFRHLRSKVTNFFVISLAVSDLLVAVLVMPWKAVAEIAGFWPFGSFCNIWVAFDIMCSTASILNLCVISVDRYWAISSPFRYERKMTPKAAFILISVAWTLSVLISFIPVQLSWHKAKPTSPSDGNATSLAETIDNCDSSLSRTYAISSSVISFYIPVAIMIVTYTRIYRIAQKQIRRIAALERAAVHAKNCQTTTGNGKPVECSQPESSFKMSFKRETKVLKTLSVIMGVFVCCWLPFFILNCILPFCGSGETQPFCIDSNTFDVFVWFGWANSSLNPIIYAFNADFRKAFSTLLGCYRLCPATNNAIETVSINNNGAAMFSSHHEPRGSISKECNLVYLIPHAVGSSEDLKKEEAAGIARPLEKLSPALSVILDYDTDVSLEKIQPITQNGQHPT

[6] = target: D(2) dopamine receptor (Homo sapiens) (UniProt P14416); experiment: Displacement of [3H]Spiperone from recombinant human Dopamine D2L receptor expressed in CHO cell membranes at 10 uM after 120 mins relative to control
D(2) dopamine receptor (Homo sapiens), sequence (P14416 whole entry): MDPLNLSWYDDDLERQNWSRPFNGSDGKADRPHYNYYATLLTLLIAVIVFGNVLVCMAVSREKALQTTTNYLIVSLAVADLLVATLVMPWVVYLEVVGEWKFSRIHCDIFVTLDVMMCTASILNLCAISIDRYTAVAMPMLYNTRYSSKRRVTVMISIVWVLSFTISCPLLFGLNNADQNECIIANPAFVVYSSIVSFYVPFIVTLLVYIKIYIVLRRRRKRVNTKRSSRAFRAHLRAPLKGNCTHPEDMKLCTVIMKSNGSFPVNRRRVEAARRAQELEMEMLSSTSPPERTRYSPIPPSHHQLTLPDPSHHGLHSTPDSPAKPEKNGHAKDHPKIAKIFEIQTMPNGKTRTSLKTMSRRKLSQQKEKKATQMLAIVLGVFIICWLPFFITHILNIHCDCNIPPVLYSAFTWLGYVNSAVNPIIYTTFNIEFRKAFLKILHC

[7] = target: D(2) dopamine receptor (Homo sapiens) (UniProt P14416); experiment: Displacement of [3H]Spiperone from recombinant human Dopamine D2S receptor expressed in CHO cell membranes at 10 uM after 120 mins relative to control

Structure (SMILES)	IC50 [1] [nM]	Ki [1] [nM]	inhibition [2] [%]	further results
Clc1ccc(CN2CCO[C@H](CCc3ccccc3)C2)cc1	130	36		
COc1ccc(CN2CCO[C@H](COc3ccccc3)C2)cc1F	56	14.3		
Fc1ccccc1CC[C@H]1CN(Cc2c[nH]c3cc(Cl)ccc23)CCC1(F)F	5990	1660	59	
Fc1ccc(CC[C@H]2CN(Cc3c[nH]c4cc(Cl)ccc34)CCC2(F)F)cc1	3200	890	73	
Cc1ccc(CN2CCC(F)(F)[C@@H](CCc3ccccc3)C2)cc1C	> 10000			
COc1ccc2cc(CN3CCC(F)(F)[C@@H](CCc4ccccc4)C3)c(OC)nc2c1			25	
FC1(F)CCN(Cc2c[nH]c3cc(Cl)ccc23)C[C@@H]1CCc1ccccc1			58	
Fc1ccc2c(CN3CCC(F)(F)[C@@H](CCc4ccccc4)C3)c[nH]c2c1			64	
COc1cccc(CCC2CN(Cc3c[nH]c4cc(F)ccc34)CCC2(F)F)c1 (racemic)	1540	430	88	
COc1ccc2c(CN3CCC(F)(F)C(CCc4cccc(F)c4)C3)c[nH]c2c1 (racemic)	45	12.5	93	
FC1(F)CCN(Cc2ccc3ncccc3c2)CC1CCc1ccccc1 (racemic)	1360	380	87	
Cc1ccc(CN2CCC(F)(F)C(CCc3ccccc3)C2)cc1C (racemic)	300	82	85	inhibition [3]: < 20%; inhibition [4]: < 20%; inhibition [5]: < 20%; inhibition [6]: < 20%; inhibition [7]: < 20%
COc1ccc2c(CN3CCC(F)(F)C(CCc4ccccc4F)C3)c[nH]c2c1 (racemic)	21	5.9	95	inhibition [3]: 80%; inhibition [4]: < 50%; inhibition [5]: < 50%; inhibition [6]: < 50%; inhibition [7]: 66%
Fc1ccc(CCC2CN(Cc3ncn4ccccc34)CCC2(F)F)cc1 (racemic)	35	9.7	97	inhibition [3]: < 50%; inhibition [4]: < 50%; inhibition [5]: < 50%; inhibition [6]: < 50%; inhibition [7]: < 50%
Fc1cccc(CCC2CN(Cc3c[nH]c4cc(F)ccc34)CCC2(F)F)c1 (racemic)	77	21	92	inhibition [3]: < 50%; inhibition [4]: < 50%; inhibition [5]: < 50%; inhibition [6]: < 50%; inhibition [7]: < 50%
COc1ccccc1CCC1CN(Cc2c[nH]c3cc(Cl)ccc23)CCC1(F)F (racemic)	230	64	94	
COc1cccc(CCC2CN(Cc3c[nH]c4cc(OC)ccc34)CCC2(F)F)c1 (racemic)	550	150	89	
COc1ccc2c(CN3CCC(F)(F)C(CCc4ccc(F)cc4)C3)c[nH]c2c1 (racemic)	37	10.3	96	
COc1ccc(CCC2CN(Cc3c[nH]c4cc(Cl)ccc34)CCC2(F)F)cc1 (racemic)	640	180	88	
Fc1cccc(CCC2CN(Cc3c[nH]c4cc(Cl)ccc34)CCC2(F)F)c1 (racemic)	160	44	94	
Fc1ccc(CCC2CN(Cc3c[nH]c4cc(F)ccc34)CCC2(F)F)cc1 (racemic)	25	7	94	
COc1ccc2c(CN3CCC(F)(F)C(CCc4ccccc4OC)C3)c[nH]c2c1 (racemic)	370	100	76	

Structure (SMILES)	IC50 [1] [nM]	Ki [1] [nM]	inhibition [2] [%]	further results
Fc1ccccc1CCC1CN(Cc2ccc(Cl)cc2)CCC1(F)F (racemic)	98	27	92	
CSc1ccc(CN2CCC(F)(F)C(CCc3ccccc3)C2)cc1 (racemic)	510	140	93	
FC1(F)CCN(Cc2ccc3ccccc3c2)CC1CCc1ccccc1 (racemic)	790	220	80	
Fc1ccc2c(CN3CCC(F)(F)C(CCc4ccccc4F)C3)c[nH]c2c1 (racemic)	31	8.6	95	
COc1ccc(CCC2CN(Cc3c[nH]c4cc(OC)ccc34)CCC2(F)F)cc1 (racemic)	430	120	93	
FC1(F)CCN(Cc2ncn3ccccc23)CC1CCc1ccccc1 (racemic)	120	34	90	inhibition [3]: < 50%; inhibition [4]: < 50%; inhibition [5]: < 50%; inhibition [6]: < 50%; inhibition [7]: < 50%
FC1(F)CCN(Cc2ccc(Cl)cc2)CC1CCc1ccccc1 (racemic)	760	210	80	
Fc1ccccc1CCC1CN(Cc2c[nH]c3cc(Cl)ccc23)CCC1(F)F (racemic)	55	15.3	96	inhibition [3]: 69%; inhibition [4]: < 50%; inhibition [5]: < 50%; inhibition [6]: < 50%; inhibition [7]: 57%
COc1ccc(CCC2CN(Cc3c[nH]c4cc(F)ccc34)CCC2(F)F)cc1 (racemic)	480	130	91	
COc1ccc(CN2CCC(F)(F)C(CCc3ccccc3)C2)cc1F (racemic)	110	31	88	
Fc1ccc(CCC2CN(Cc3ccc(Cl)cc3)CCC2(F)F)cc1 (racemic)	65	17.9	95	
COc1ccc(CN2CCC(F)(F)C(CCc3ccccc3)C2)cc1 (racemic)	430	120	87	
Fc1ccccc1CCC1CN(Cc2ncn3ccccc23)CCC1(F)F (racemic)	150	42	92	
COc1ccccc1CCC1CN(Cc2c[nH]c3cc(F)ccc23)CCC1(F)F (racemic)	170	48	94	
FC1(F)CCN(Cc2cccc3cc[nH]c23)CC1CCc1ccccc1 (racemic)	300	84	88	
COc1ccc2[nH]cc(CN3CCC(F)(F)C(CCc4ccccc4)C3)c2c1 (racemic)	720	200	91	inhibition [3]: < 50%; inhibition [4]: < 50%; inhibition [5]: < 50%; inhibition [6]: < 50%; inhibition [7]: 52%
COc1ccccc1CCC1CN(Cc2ccc(Cl)cc2)CCC1(F)F (racemic)	230	63	75	
CCOc1ccccc1CN1CCC(F)(F)C(CCc2ccccc2)C1 (racemic)			49	
COc1ccc(CN2CCC(F)(F)C(CCc3ccccc3)C2)cc1OC (racemic)			77	
COc1cccc(CCC2CN(Cc3ccc(Cl)cc3)CCC2(F)F)c1 (racemic)			67	
COc1cccc(CCC2CN(Cc3ncn4ccccc34)CCC2(F)F)c1 (racemic)			66	
COc1cccc2ccc(CN3CCC(F)(F)C(CCc4ccccc4)C3)nc12 (racemic)			54	

Structure (SMILES)	IC50 [1] [nM]	Ki [1] [nM]	inhibition [2] [%]	further results
COc1ccccc1CCC1CN(Cc2c[nH]c3cccc(F)c23)CCC1(F)F (racemic)			3	
FC(F)(F)Oc1ccc(CN2CCC(F)(F)C(CCc3ccccc3)C2)cc1 (racemic)			70	
FC(F)(F)c1cc(CN2CCC(F)(F)C(CCc3ccccc3)C2)cc(C(F)(F)F)c1 (racemic)			0	
FC(F)(F)c1ccc(CN2CCC(F)(F)C(CCc3ccccc3)C2)cc1 (racemic)			79	
FC(F)(F)c1cccc(CN2CCC(F)(F)C(CCc3ccccc3)C2)c1 (racemic)			48	
FC1(F)CCN(Cc2cc3ccccc3s2)CC1CCc1ccccc1 (racemic)			51	
FC1(F)CCN(Cc2ccc3[nH]ncc3c2)CC1CCc1ccccc1 (racemic)			68	
FC1(F)CCN(Cc2ccc3ccccc3n2)CC1CCc1ccccc1 (racemic)			70	
FC1(F)CCN(Cc2cccc(Cl)c2)CC1CCc1ccccc1 (racemic)			55	
FC1(F)CCN(Cc2cccc3c2OCO3)CC1CCc1ccccc1 (racemic)			18	
FC1(F)CCN(Cc2nc3cc(Cl)ccc3cc2Cl)CC1CCc1ccccc1 (racemic)			16	
Fc1ccc(CN2CCC(F)(F)C(CCc3ccccc3)C2)c(Cl)c1 (racemic)			6	
Fc1ccc2nc(CN3CCC(F)(F)C(CCc4ccccc4)C3)ccc2c1 (racemic)			66	
Fc1cccc(CCC2CN(Cc3c[nH]c4cccc(F)c34)CCC2(F)F)c1 (racemic)			59	
Fc1cccc(CCC2CN(Cc3ncn4ccccc34)CCC2(F)F)c1 (racemic)			78	
Fc1cccc(Cl)c1CN1CCC(F)(F)C(CCc2ccccc2)C1 (racemic)			10	
Fc1cccc2ccc(CN3CCC(F)(F)C(CCc4ccccc4)C3)nc12 (racemic)			69	
Fc1ccccc1CCC1CN(Cc2c[nH]c3cccc(F)c23)CCC1(F)F (racemic)			62	
N#Cc1cc(CN2CCC(F)(F)C(CCc3ccccc3)C2)ccc1F (racemic)			66	
N#Cc1ccccc1CN1CCC(F)(F)C(CCc2ccccc2)C1 (racemic)			10	
